# Reference: patent publication US8946275B2, “Treatment of cancer using hypoxia activated prodrugs” (Threshold Pharmaceuticals, Inc., priority 2008, dated 2015)
# Where two headings read alike, the source gives them in different places.
# Experiments:
# Solubility of TH-302 = format: physicochemical; details: organic solvent or mixture
# [1] = system: small cell lung cancer (SCLC); assay: TH-302 monotherapy in patients with lung cancer (SCLC); format: in vivo, human
# Procedure: Eight subjects with SCLC have been treated with TH-302 monotherapy at initial doses of 480 mg/m^2 to 670 mg/m^2 as part of a 3 consecutive week dosing regimen repeated every 4 weeks (this excludes one subject dosed at 60 mg/m^2 during the initial dose escalation). RECIST tumor assessments were performed initially for seven subjects. […] One of the seven subjects continued on-study for additional cycles of treatment.
# In this study, a person suffering from a lung cancer (a refractory small cell lung cancer) that had metastasized to liver was treated as follows. Lyophilized TH-302 was diluted with D5W and administered to the patient at an amount of 480 mg/m^2, according to the following 4 week dosing cycle: TH-302 was administered once every week for 3 weeks, on days 1, 8, and 15, followed by a week of no TH-302 administration. The patient was administered 2 cycles (i.e. 6 doses) of TH-302, and the lung and liver cancers assessed by a computed tomography (or CT) scan. […] LDH had decreased 72%, and liver function tests had normalized.
# H460 NSCLC cells = assay: H460 ectopic xenograft, TH-302/pemetrexed dosing schedules; format: in vivo, nude mice; details: single agent, TH-302 100 mg/kg ip Q7Dx2 or PMX 150 mg/kg ip Q7Dx2
# Procedure: Anti-tumor activity was evaluated by tumor growth delay (TGD) and tumor growth inhibition (TGI). Body weight change, gross and microscopic assessment of tissue changes, and hematologic assays served for toxicity assessment. Testing in these models was conducted generally as follows. 1×10^6 (H460 human non-small cell lung cancer or HT1080 human fibrosarcoma cells) or 3×10^6 (PC-3 human prostate cancer cells) were implanted in the subcutaneous space of the right flank to obtain ectopic xenograft models. Randomization and dosing was initiated when tumors reached a certain size (100-150 mm^3). API grade of TH-302 was used in all experiments while docetaxel, gemcitabine, cisplatin, pemetrexed, and doxorubicin were purchased from commercial sources.
# The H460 cells were prepared in 30% Matrigel and 70%. RPMI1640. Mice were anesthetized by isoflurane and were implanted subcutaneously with 1×10^6 cells (in 200 μl) at the flank position. We selected 110 mice bearing similar size tumors (˜100 mm^3) for the study. Mice bearing similar tumor size were randomly assigned into different groups. Treatment started on day 1 (7 days after tumor implantation) except as noted. TH-302 was administered intraperitoneally (IP) at 150 mg/kg, and docetaxel was administered intravenously (IV) at 10 mg/kg. Animals were observed daily and tumor measurements and body weights recorded twice weekly.
# In a study conducted substantially as described above except the cells implanted were H460 NSCLC cells and 1×10^6 cells were implanted and mice were randomized into separate groups when their tumors reached ˜100 mm^3 and the chemotherapeutic employed was pemetrexed at a dose of 150 mg/kg given once a week (Q7D) for two weeks IP and the TH-302 was given at 100 mg/kg given once a week (Q7D) for two weeks IP. […]
# H460 NSCLC [2] = assay: H460 ectopic lung cancer model, TH-302 with pemetrexed; format: in vivo, nude mice; details: PMX 150 mg/kg 1/wkx2wks IP; TH-302 50 mg/kg 5/wkx2wks IP; alone or combined
# Procedure: (§1) Anti-tumor activity was evaluated by tumor growth inhibition (TGI) and tumor growth delay (TGD). Body weight change, gross and microscopic assessment of tissue changes, and hematologic assays served for toxicity assessment.
# (§2) Testing in these models was conducted generally as follows. 1×10^6 H460 human non-small cell lung cancer or HT1080 human fibrosarcoma cells were implanted in the subcutaneous space of the right flank to obtain ectopic xenograft models. For the orthotopic pancreatic model, red-fluorescent protein (RFP) expressing MIA PaCa2 tumors were surgically implanted on the surface of the pancreas. The prostate metastatic model was created by the intraventricular injection of 3×10^6 luciferase-expressing PC-3 cells. […] API grade of TH-302 was used in all experiments while docetaxel, gemcitabine, doxorubicin and pemetrexed were purchased from commercial sources.
# Calu6 NSCLC = assay: Calu-6 ectopic tumor model, TH-302 with doxorubicin; format: in vivo, nude mice; details: Dox 4 mg/kg IV Q7Dx2; TH-302 50 mg/kg IP QDx5/wkx2wks; alone or combined
# H460 NSCLC [3] = assay: H460 ectopic tumor model, TH-302 with carboplatin; format: in vivo, nude mice
# Procedure: as §1, §2
# Inhibition of tumor growth after administration of TH-302 and carboplatin was greater than for either drug individually in an ectopic tumor model using H460 cells.
# HT29 colon cancer = assay: HT-29 ectopic tumor model, TH-302 with 5FU; format: in vivo, nude mice
# [4] = 480-670 mg/m^2, weekly x3 every 4 weeks, seven subjects assessed
# [5] = one refractory SCLC patient, 480 mg/m^2, 2 cycles
# [6] = Carboplatin 20 mg/kg IV Q7Dx2, TH-302 100 mg/kg IP Q7Dx2, alone or combined
# [7] = TH-302 150 mg/kg IP Q7Dx2, alone or + Carboplatin 20 mg/kg IV Q7Dx2
# [8] = 5-FU 50 mg/kg IV Q3Dx4, TH-302 150 mg/kg IP Q7Dx3, alone or combined
# [9] = TH-302 100 mg/kg IP Q3Dx5, alone or + 5-FU 50 mg/kg IV Q3Dx4
smiles,measurement,setting,value
"Cn1c(COP(=O)(NCCBr)NCCBr)cnc1[N+](=O)[O-] [TH-302, (2-bromoethyl)({[(2-bromoethyl)amino][(2-nitro-3-methylimidazol-4-yl)methoxy]phosphoryl})amine]",solubility,"Solubility of TH-302; ethanol, even at higher temperatures, read-out: Highest solubility of TH-302 in ethanol",~80 mg/mL
same,solubility,"Solubility of TH-302; ethanol/TWEEN 80 or ethanol/TWEEN 80/DMA, depending on the ratio, read-out: Solubility of TH-302",≤ 300 mg/mL
same,Partial responses (RECIST),[1]; [4],Two of seven subjects
same,Stable disease (RECIST),[1]; [4],three of these same seven subjects
same,Decrease in sum of the longest diameters [SLD] of target lesions,[1]; [5],44%
same,LDH decrease,[1]; [5],72%
same,Reduction in area of cancer in lung and liver,[1]; [5],over 50%
same,Response,"[1]; three other patients with lung cancer (one NSCLC, 2 SCLC)",stable disease
same,Days to 500 mm^3,H460 NSCLC cells,19 days
same,Days to 1000 mm^3,H460 NSCLC cells,30 days
same,T/C,H460 NSCLC cells,49.7%
same,"TGD500, Days (vs. vehicle)",H460 NSCLC cells,7 days
same,"TGD1000, Days (vs. vehicle)",H460 NSCLC cells,9 days
same,TGI,H460 NSCLC cells,50.3%
same,Tn (tumor volume on Day n),H460 NSCLC cells,598.34
same,Days to 500 mm^3,H460 NSCLC [2],26 days
same,Days to 1000 mm^3,H460 NSCLC [2],34 days
same,T/C,H460 NSCLC [2],38.4%
same,"TGD500, Days (vs. vehicle)",H460 NSCLC [2],12 days
same,"TGD1000, Days (vs. vehicle)",H460 NSCLC [2],10 days
same,TGI,H460 NSCLC [2],61.6%
same,Tn (tumor volume on Day n),H460 NSCLC [2],507.13
same,Days to 500 mm^3,Calu6 NSCLC,29 days
same,Days to 1000 mm^3,Calu6 NSCLC,39 days
same,T/C,Calu6 NSCLC,59.2%
same,"TGD500, Days (vs. vehicle)",Calu6 NSCLC,11 days
same,"TGD1000, Days (vs. vehicle)",Calu6 NSCLC,8 days
same,TGI,Calu6 NSCLC,40.8%
same,Tn (tumor volume on Day n),Calu6 NSCLC,695.67
same,Days to 500 mm^3,H460 NSCLC [3]; [6],13.5 days
same,T/C,H460 NSCLC [3]; [6],56.1%
same,"TGD500, Days (vs. vehicle)",H460 NSCLC [3]; [6],4 days
same,TGI,H460 NSCLC [3]; [6],43.9%
same,Tn (tumor volume on Day n),H460 NSCLC [3]; [6],706.0
same,Days to 500 mm^3,H460 NSCLC [3]; [7],14.5 days
same,T/C,H460 NSCLC [3]; [7],50.3%
same,"TGD500, Days (vs. vehicle)",H460 NSCLC [3]; [7],5 days
same,TGI,H460 NSCLC [3]; [7],49.7%
same,Tn (tumor volume on Day n),H460 NSCLC [3]; [7],641.6
same,Days to 500 mm^3,HT29 colon cancer; [8],28 days
same,Days to 1000 mm^3,HT29 colon cancer; [8],46 days
same,T/C,HT29 colon cancer; [8],48.4%
same,"TGD500, Days (vs. vehicle)",HT29 colon cancer; [8],6 days
same,"TGD1000, Days (vs. vehicle)",HT29 colon cancer; [8],14 days
same,TGI,HT29 colon cancer; [8],51.6%
same,Tn (tumor volume on Day n),HT29 colon cancer; [8],565.70
same,Days to 500 mm^3,HT29 colon cancer; [9],29 days
same,Days to 1000 mm^3,HT29 colon cancer; [9],41 days
same,T/C,HT29 colon cancer; [9],52.0%
same,"TGD500, Days (vs. vehicle)",HT29 colon cancer; [9],7 days
same,"TGD1000, Days (vs. vehicle)",HT29 colon cancer; [9],9 days
same,TGI,HT29 colon cancer; [9],48.0%
same,Tn (tumor volume on Day n),HT29 colon cancer; [9],580.55
